pIC50: −log10 of the molar value.

For orientation: pIC50 means the negative decadic logarithm of the IC50, by convention in mol/L.

What all share (format): cell-based
Assay [1] deals with T1, dopamine transporter (hDAT) (Homo sapiens, UniProt Q01959).
T1 construct: expressed in transfected cells
Description: Inhibition of 3H-dopamine uptake in HEK-293 cells expressing hDAT. The procedure:
(§1) Cells were harvested for the assay to yield a cell suspension of 750,000 cells/ml. […] Assays were carried out in 96-well filter bottom plates. […] All reactions were carried out at room temperature in a shaking incubator. Incubation times were 5 minutes for the hSERT and hDAT assays and 15 minutes for the hNET assay. Reactions were terminated by removal of the reaction mixture using a vacuum manifold followed by rapid washing with ice cold assay buffer. The quantity of ^3H-substrate incorporated into the cells was then quantified. Assay plates were dried in a microwave oven, scintillation fluid added, and radioactivity measured. […] Note: The pH of the buffer was adjusted to 7.40 with 1M NaOH before addition of CaCl2 and pargyline.

Assay [2] addresses T2, human serotonin transporter (hSERT) (Homo sapiens, UniProt P31645).
T2 construct: expressed in transfected cells
Description: Inhibition of 3H-serotonin uptake in HEK-293 cells expressing hSERT. The conditions noted are these: HEK-293 hSERT cells, 3H-5HT 50 nM, 5 min incubation; read-out: serotonin re-uptake inhibition (SRI) IC50. The procedure: as §1

The target of assay [3] is T3, noradrenaline transporter (hNET) (Homo sapiens, UniProt P23975).
T3 construct: expressed in transfected cells
Description: Inhibition of 3H-noradrenaline uptake in HEK-293 cells expressing hNET. As to the method: Cells were harvested for the assay to yield a cell suspension of 750,000 cells/ml. All test compounds were dissolved in 100% DMSO and diluted down in assay buffer to give appropriate test concentrations. Assays were carried out in 96-well filter bottom plates. […] All reactions were carried out at room temperature in a shaking incubator. Incubation times were 5 minutes for the hSERT and hDAT assays and 15 minutes for the hNET assay. Reactions were terminated by removal of the reaction mixture using a vacuum manifold followed by rapid washing with ice cold assay buffer. The quantity of ^3H-substrate incorporated into the cells was then quantified. Assay plates were dried in a microwave oven, scintillation fluid added, and radioactivity measured. […] Note: The pH of the buffer was adjusted to 7.40 with 1M NaOH before addition of CaCl2 and pargyline. [table]

T3 sequence (P23975 whole entry): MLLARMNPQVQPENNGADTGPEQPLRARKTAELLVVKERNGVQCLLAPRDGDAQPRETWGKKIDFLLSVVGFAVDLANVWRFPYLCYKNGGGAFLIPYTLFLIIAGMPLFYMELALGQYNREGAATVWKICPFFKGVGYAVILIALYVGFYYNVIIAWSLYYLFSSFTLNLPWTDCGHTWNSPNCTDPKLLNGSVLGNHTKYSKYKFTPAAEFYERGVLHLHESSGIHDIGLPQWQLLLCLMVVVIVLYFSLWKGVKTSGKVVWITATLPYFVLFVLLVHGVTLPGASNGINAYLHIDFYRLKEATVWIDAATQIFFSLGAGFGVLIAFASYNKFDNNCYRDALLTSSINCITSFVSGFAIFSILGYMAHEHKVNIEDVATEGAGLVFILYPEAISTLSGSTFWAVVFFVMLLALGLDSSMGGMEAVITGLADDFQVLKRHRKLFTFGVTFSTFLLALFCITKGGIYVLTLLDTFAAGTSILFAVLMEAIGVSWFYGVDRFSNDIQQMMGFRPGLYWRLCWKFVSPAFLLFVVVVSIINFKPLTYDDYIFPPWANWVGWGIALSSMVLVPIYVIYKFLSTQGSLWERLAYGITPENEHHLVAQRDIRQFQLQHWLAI
T1 sequence (Q01959 whole entry): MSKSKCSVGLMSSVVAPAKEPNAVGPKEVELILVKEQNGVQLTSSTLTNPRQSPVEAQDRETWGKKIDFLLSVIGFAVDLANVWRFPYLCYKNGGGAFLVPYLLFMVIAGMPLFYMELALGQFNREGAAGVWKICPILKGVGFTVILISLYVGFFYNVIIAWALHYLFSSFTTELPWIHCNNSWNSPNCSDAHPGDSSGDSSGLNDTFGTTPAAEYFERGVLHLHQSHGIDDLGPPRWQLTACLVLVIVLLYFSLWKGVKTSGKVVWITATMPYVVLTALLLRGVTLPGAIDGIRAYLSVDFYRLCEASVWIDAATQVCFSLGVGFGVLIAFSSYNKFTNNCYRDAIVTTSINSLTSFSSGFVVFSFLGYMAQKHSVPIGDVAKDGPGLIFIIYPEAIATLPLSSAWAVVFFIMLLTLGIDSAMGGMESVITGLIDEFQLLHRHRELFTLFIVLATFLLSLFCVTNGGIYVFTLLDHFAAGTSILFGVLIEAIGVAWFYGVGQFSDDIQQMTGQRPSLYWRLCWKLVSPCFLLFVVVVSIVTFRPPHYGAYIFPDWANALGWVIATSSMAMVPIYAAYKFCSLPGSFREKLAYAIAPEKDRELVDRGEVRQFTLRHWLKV
T2 sequence (P31645 whole entry): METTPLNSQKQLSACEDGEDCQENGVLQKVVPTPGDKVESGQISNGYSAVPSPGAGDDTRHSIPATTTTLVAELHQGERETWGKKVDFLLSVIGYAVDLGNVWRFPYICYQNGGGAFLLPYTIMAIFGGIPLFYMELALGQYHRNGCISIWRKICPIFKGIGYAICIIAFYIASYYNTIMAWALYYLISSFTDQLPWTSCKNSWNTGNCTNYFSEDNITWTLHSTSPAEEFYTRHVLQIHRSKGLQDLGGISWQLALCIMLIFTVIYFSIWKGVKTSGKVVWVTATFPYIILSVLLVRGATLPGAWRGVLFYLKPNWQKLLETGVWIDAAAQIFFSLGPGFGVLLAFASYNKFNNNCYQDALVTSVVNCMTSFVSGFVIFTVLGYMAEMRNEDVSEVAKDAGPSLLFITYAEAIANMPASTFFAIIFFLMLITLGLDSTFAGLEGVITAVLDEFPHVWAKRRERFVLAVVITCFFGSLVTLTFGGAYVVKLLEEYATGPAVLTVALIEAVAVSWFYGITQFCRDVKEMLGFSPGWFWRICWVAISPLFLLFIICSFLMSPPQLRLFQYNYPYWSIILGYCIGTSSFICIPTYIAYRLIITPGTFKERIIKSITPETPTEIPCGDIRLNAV

Consider `CC(C)CN(C(=O)c1ccc2ccccc2c1)[C@@H]1CCNC1.Cl` [Example 23, N-Isobutyl-N-[(3R)-pyrrolidin-3-yl]-2-naphthamide hydrochloride], for which the pIC50 in assay [1] (HEK-293 hDAT cells, 3H-Dopamine 200 nM, 5 min incubation, read-out: dopamine re-uptake inhibition IC50) was 5.02; in assay [2], 8.33; in assay [3] (HEK-293 hNET cells, 3H-Noradrenaline 200 nM, 15 min incubation, read-out: noradrenaline re-uptake inhibition IC50), 5.91. In addition, the “fold more potent (serotonin re-uptake) over dopamine re-uptake” value in assay [1] (selectivity hSERT vs hDAT) is recorded as 2018 fold. Moreover, the “fold more potent (serotonin re-uptake) over noradrenaline re-uptake” value in assay [3] (selectivity hSERT vs hNET) was 261 fold.

Source of the values: patent US20050014789A1, “Amide derivatives as selective serotonin re-uptake inhibitors” (Pfizer Inc, priority 2003, published 2005).
